Patent publication US20250108019A1, “USE OF LACTIC ACID IN PRODUCT FOR REGULATING AND PROMOTING TISSUE GROWTH” (CHANGCHUN SINOBIOMATERIALS CO., LTD., priority 2022, published 2025)

What was measured:
[1] = system: muscle—rectus femoris; test: Muscle tissue diameter after local injection in mice (Sirius red, 100× optical microscope); assay type: in vivo; conditions: for Muscle tissue measured value, mean: 0.1 ml injection daily, experimental side
Source text: (§1) Experimental animals: Male experimental mice weighing 23±4 g were selected and divided into several groups, with 10 mice in each group. Experimental site: Different tissue sites of mice were selected for the test, specifically muscle—rectus femoris, tendon—Achilles tendon, cartilage—ear cartilage tissue. Experimental group: ? 25 mmol/L aqueous lactic acid solution • ? 50 mmol/L aqueous lactic acid solution • ? 75 mmol/L aqueous lactic acid solution and • ? 0.9% sodium chloride injection Experimental procedure: The right side of the experimental mouse was the experimental side (injected with lactic acid solutions at different concentrations), and the left side was the control side (injected with 0.9% sodium chloride injection). The experiment started with a single injection of 0.1 ml of the corresponding experimental solution at the experimental side every day from 1 to 7 days. […] The experimental and control sides of each mouse were selected for fixation and pathological histological examination. • 1) The tissue to be observed was cut and fixed, and then stained with Sirius red to observe the effects of the injection solution on the tissues at various sites. • 2) The experimental side and the control side were randomly selected for sectioning, the diameter of each tissue was measured under a 100× optical microscope, and the average value of the experimental side and the control side was calculated using the following formula: [formula] The diameters on both sides were compared, and the effects of the lactic acid solution on each tissue site were analyzed using the SSPS 21 calculation results.

[2] = system: tendon—Achilles tendon; test: Tendon diameter after local injection in mice (Sirius red, 100× optical microscope); assay type: in vivo; conditions: for Tendon measured value, mean: 0.1 ml injection daily, experimental side
Source text: as §1

[3] = system: cartilage—ear cartilage tissue; test: Ear cartilage diameter after local injection in mice (Sirius red, 100× optical microscope); assay type: in vivo; conditions: 50 mmol/L; for Ear cartilage tissue measured value, mean: 0.1 ml injection daily, experimental side
Source text: as §1

[4] = system: sciatic nerve; test: Sciatic function index (SFI) after sciatic nerve clamp injury; assay type: in vivo, mice; conditions: 0.1 ml of 50 mmol/L intraperitoneal
Description: Experimental animals: Male experimental mice weighing 30˜35 g were selected and divided into 3 groups, with 26 mice in each group. Experimental site: The sciatic nerve of mice was selected. Experimental groups: ? model group (injury caused by sciatic nerve clamp injury); ? treatment group (after injuried by sciatic nerve clamp, 0.1 ml of 50 mmol/L aqueous lactic acid solution was given by intraperitoneal injection each time); and ? sham group (only the sciatic nerve was freed). Experimental procedure: The treatment group was given medication for 14 consecutive days, and the model group and sham group were given an equal amount of 0.9% sodium chloride injection. • (1) The functional recovery of the sciatic nerve of mice after injury was tracked and evaluated by using the sciatic function index (SFI) at 7 and 14 days after surgery. […] The footprints of the left injured side (E) and the right normal side (N) of the experimental mice were measured. The footprint length (PL), the distance from the first toe to the fifth toe (TS), and the distance from the second toe to the fourth toe (IT) were recorded and put into the formula for calculation. […] The formula is as follows: SFI=109.5(ETS−NTS)/NTS−38.3(EPL−NPL)/NPL+13.3(EIT−NIT)/NIT−8.8 • (2) The degree of toe spread on the injured side was recorded at 3, 7, and 14 days after surgery. […]

[5] = system: sciatic nerve; test: Toe spread score after sciatic nerve clamp injury; assay type: in vivo, mice; conditions: 0.1 ml of 50 mmol/L intraperitoneal
Description: Experimental animals: Male experimental mice weighing 30˜35 g were selected and divided into 3 groups, with 26 mice in each group. Experimental site: The sciatic nerve of mice was selected. Experimental groups: ? model group (injury caused by sciatic nerve clamp injury); ? treatment group (after injuried by sciatic nerve clamp, 0.1 ml of 50 mmol/L aqueous lactic acid solution was given by intraperitoneal injection each time); and ? sham group (only the sciatic nerve was freed). Experimental procedure: The treatment group was given medication for 14 consecutive days, and the model group and sham group were given an equal amount of 0.9% sodium chloride injection. […] The evaluation grades are classified as scores 0˜3, with no spread being score 0 and full spread being score 3.

CC(O)C(=O)O (centres unmarked) [lactic acid]
Muscle tissue measured value, mean ([1]; 25 mmol/L, 3 days): 64.13 μm | Muscle tissue measured value, mean ([1]; 25 mmol/L, 7 days): 79.66 μm | Muscle tissue measured value, mean ([1]; 25 mmol/L, 14 days, * P<0.05 vs control side): 123.8* μm | Muscle tissue measured value, mean ([1]; 25 mmol/L, 21 days): 112.1 μm | Muscle tissue on the experimental side, histological observation ([1]; 25 mmol/L, 14 days, FIG. 1): significantly thickened | Muscle tissue measured value, mean ([1]; 50 mmol/L, 3 days): 73.49 μm | Muscle tissue measured value, mean ([1]; 50 mmol/L, 7 days, ** P<0.01 vs control side): 69.14** μm | Muscle tissue measured value, mean ([1]; 50 mmol/L, 14 days, * P<0.05 vs control side): 119.5* μm | Muscle tissue measured value, mean ([1]; 50 mmol/L, 21 days): 111.9 μm | Muscle tissue on the experimental side, histological observation ([1]; 50 mmol/L, 7 days, FIG. 2): significantly thickened | Tendon measured value, mean ([2]; 25 mmol/L, 3 days, * P<0.05 vs control): 853.9* μm | Tendon measured value, mean ([2]; 25 mmol/L, 14 days): 877.1 μm | Tendon measured value, mean ([2]; 25 mmol/L, 21 days): 438.3 μm | Achilles tendon on the experimental side, histological observation ([2]; 25 mmol/L, 3 days after injection, FIG. 3): significantly thickened | Tendon measured value, mean ([2]; 50 mmol/L, 3 days): 484.6 μm | Tendon measured value, mean ([2]; 50 mmol/L, 7 days): 547.8 μm | Tendon measured value, mean ([2]; 50 mmol/L, 14 days, * P<0.05 vs control): 769.5* μm | Tendon measured value, mean ([2]; 50 mmol/L, 21 days): 543.9 μm | Achilles tendon on the experimental side, histological observation ([2]; 50 mmol/L, Day 14, FIG. 4): significantly thickened | Tendon measured value, mean ([2]; 75 mmol/L, 3 days, * P<0.05 vs control): 970.9* μm | Tendon measured value, mean ([2]; 75 mmol/L, 7 days, * P<0.05 vs control): 832.2* μm | Tendon measured value, mean ([2]; 75 mmol/L, 14 days): 578.2 μm | Tendon measured value, mean ([2]; 75 mmol/L, 21 days, * P<0.05 vs control): 970.1* μm | Achilles tendon on the experimental side, histological observation ([2]; 75 mmol/L, Day 3, 7, and 21, FIG. 5): significantly thickened | Ear cartilage tissue measured value, mean ([3]; 3 days): 158.8 μm | Ear cartilage tissue measured value, mean ([3]; 7 days): 237.3 μm | Ear cartilage tissue measured value, mean ([3]; 14 days): 170.3 μm | Ear cartilage tissue measured value, mean ([3]; 21 days, * P<0.05 vs control side): 253.5* μm | Cross-section of the ear cartilage on the experimental side, histological observation ([3]; Day 21, FIG. 6): significantly thickened | SFI score ([4]; 7 days after surgery, FIG. 7): significantly lower than those in the sham group | SFI score ([4]; 14 days after surgery, P<0.01, FIG. 7): significantly increased | Toe spread score (0~3) ([5]; 3 days after surgery): 0 ± 0.4 | Toe spread score (0~3) ([5]; 7 days after surgery): 0.9 ± 0.6 | Toe spread score (0~3) ([5]; 10 days after surgery): 2 ± 0.3 | Toe spread score (0~3) ([5]; 14 days after surgery): 2.5 ± 0.5
